From ChEMBL document CHEMBL2074068, “Flavonoid permeability across an in situ model of the blood-brain barrier” (Free Radic Biol Med, 2004) come the findings set out here.

The target in data set [1] is T1, ATP-dependent translocase ABCB1 (Homo sapiens, UniProt P08183). Put plainly: TP_TRANSPORTER: cell accumulation of colchicine in the presence of Naringenin at a concentration of 100uM in MDR1-expressing MDCK cells. Particulars: dog. It counts as functional, cell-based.
The target in data set [2] is T1, ATP-dependent translocase ABCB1. Briefly: TP_TRANSPORTER: cell accumulation in MDR1-expressing MDCK cells. It counts as functional, cell-based. Particulars: dog.

T1 sequence (P08183 whole entry): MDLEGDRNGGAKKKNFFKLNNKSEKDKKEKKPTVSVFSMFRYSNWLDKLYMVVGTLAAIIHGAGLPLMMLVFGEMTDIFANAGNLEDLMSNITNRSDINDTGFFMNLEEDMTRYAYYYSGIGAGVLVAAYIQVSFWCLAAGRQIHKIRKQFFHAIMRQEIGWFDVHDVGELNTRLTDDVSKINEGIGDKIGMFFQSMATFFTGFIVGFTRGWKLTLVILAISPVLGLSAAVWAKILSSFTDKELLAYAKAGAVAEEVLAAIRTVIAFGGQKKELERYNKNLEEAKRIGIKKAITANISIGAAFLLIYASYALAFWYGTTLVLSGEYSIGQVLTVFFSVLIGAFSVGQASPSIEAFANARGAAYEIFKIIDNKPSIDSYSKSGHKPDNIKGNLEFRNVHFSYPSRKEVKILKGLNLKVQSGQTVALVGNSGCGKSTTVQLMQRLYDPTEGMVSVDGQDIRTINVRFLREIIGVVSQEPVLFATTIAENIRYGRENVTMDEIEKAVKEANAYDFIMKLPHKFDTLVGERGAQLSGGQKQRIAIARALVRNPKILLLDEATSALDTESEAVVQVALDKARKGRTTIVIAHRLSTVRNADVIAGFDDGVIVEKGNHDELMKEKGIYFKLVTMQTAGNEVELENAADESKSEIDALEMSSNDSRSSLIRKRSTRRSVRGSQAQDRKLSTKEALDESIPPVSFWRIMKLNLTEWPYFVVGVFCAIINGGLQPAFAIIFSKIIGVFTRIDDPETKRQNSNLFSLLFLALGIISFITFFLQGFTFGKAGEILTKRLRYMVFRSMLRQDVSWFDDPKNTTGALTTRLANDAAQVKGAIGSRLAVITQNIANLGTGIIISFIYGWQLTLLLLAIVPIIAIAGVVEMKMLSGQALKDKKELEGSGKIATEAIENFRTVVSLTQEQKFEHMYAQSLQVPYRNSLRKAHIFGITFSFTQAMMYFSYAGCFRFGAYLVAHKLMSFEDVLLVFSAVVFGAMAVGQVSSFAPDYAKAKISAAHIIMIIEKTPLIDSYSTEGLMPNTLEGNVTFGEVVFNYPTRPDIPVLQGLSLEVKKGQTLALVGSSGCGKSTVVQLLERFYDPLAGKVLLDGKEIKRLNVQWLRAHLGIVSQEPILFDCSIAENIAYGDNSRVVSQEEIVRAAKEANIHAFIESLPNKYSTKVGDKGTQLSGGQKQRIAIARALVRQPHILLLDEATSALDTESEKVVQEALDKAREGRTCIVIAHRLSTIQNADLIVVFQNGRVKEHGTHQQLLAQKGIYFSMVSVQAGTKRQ

On to `O=C1C[C@@H](c2ccc(O)cc2)Oc2cc(O)cc(O)c21` [NARINGENIN], for which the results for the Activity result in data set [1] and in data set [2] were “inhibitor [+]” and “substrate [+]”, respectively.
